# Results as given in paper PMC7656302 (Cancers, 2020).
# Columns and labels:
# clinical = details: human, in vivo
# Experimental: Concentration-time curve and PK parameters were analyzed for each compound. Maximal concentrations (Cmax) and the time to reach the Cmax (Tmax) were graphically identified and the AUC was calculated with a non-compartmental method.
# HIF-1α = details: colon cancers, oxygen concentrations from 5 to 1%; cited from earlier work
Tmax (clinical; Irinotecan D1 Tmax) [h],AUC (clinical; irinotecan mean AUC) [ng·h/mL],AUC (clinical; mean AUC of irinotecan) [ng·h/mL],AUC (clinical; mean irinotecan AUCs) [ng·h/mL],concentration at 8 day (clinical; D8 rapamycin concentrations) [ng/mL],Tmax (clinical; Rapamycin D1 Tmax) [h],AUC (clinical; mean AUC of D8 rapamycin) [ng·h/mL],Compound,inhibition of HIF-1α (HIF-1α)
1.67,6740,6870,5970,,,,CCc1c2c(nc3ccc(OC(=O)N4CCC(N5CCCCC5)CC4)cc13)-c1cc3c(c(=O)n1C2)COC(=O)[C@]3(O)CC [irinotecan],high inhibition of HIF-1α
,,,,6.75,3.5,176,CO[C@H]1C[C@@H]2CC[C@@H](C)[C@@](O)(O2)C(=O)C(=O)N2CCCC[C@H]2C(=O)O[C@H]([C@H](C)C[C@@H]2CC[C@@H](O)[C@H](OC)C2)CC(=O)[C@H](C)/C=C(\C)[C@@H](O)[C@@H](OC)C(=O)[C@H](C)C[C@H](C)/C=C/C=C/C=C/1C [rapamycin],
